According to article PMC8190895 (RSC Chemical Biology, 2021):
Like-named read-outs stand apart in the source and are kept apart here. Each block holds one compound with its values, some of them ahead of it.

Legend:
Assay in all cases: ITC
Assay type in all cases: binding
[1] = target: T1, Gal-8FL (full-length human galectin-8) (Homo sapiens, UniProt O00214); conditions: PBS (50 mM sodium phosphate, 150 mM NaCl) pH 7.4, 1 mM TCEP, 298 K
T1 sequence (O00214 1-317): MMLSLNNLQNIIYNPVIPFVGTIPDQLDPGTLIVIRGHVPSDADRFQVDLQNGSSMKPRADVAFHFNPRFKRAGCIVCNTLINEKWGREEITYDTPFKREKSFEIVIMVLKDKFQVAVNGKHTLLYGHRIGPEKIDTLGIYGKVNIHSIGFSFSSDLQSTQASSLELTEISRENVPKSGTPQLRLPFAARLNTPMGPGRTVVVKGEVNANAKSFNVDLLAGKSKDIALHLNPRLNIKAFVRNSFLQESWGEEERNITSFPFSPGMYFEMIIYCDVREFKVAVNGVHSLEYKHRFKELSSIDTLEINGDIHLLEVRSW

[2] = target: T2, Gal-8C (C-terminal CRD of human galectin-8) (Homo sapiens, UniProt O00214); conditions: PBS (50 mM sodium phosphate, 150 mM NaCl) pH 7.4, 1 mM TCEP, 298 K
T2 sequence (O00214 184-317): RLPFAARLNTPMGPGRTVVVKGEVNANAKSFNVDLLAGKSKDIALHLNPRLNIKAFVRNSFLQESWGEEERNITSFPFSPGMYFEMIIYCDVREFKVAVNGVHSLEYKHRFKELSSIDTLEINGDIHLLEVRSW

[3] = target: T3, Gal-8N (N-terminal CRD of human galectin-8) (Homo sapiens, UniProt O00214); conditions: read-out: Neu5Acα2-3Galb1-3GalNAc (3); PBS (50 mM sodium phosphate, 150 mM NaCl) pH 7.4, 1 mM TCEP, 298 K
T3 sequence (O00214 1-155): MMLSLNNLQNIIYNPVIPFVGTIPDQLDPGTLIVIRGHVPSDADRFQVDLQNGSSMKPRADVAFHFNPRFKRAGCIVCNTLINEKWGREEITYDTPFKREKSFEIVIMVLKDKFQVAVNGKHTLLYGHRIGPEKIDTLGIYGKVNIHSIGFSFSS

Kd ([1]; read-out: B type II (5), site: C-terminal CRD): 36.7 ± 0.6 µM
Kd ([2]; read-out: B type II (5)): 18.4 ± 0.1 µM
SMILES: CC(=O)N[C@H]1C(O)O[C@H](CO)[C@@H](O[C@@H]2O[C@H](CO)[C@H](O)[C@H](O[C@H]3O[C@H](CO)[C@H](O)[C@H](O)[C@H]3O)[C@H]2O[C@@H]2O[C@@H](C)[C@@H](O)[C@@H](O)[C@@H]2O)[C@@H]1O (stereo partly drawn) [compound 5, B type II]

Kd ([1]; read-out: A type II (6), site: C-terminal CRD, not pre-loaded): 12 ± 1 µM
Kd ([2]; read-out: A type II (6)): 13.45 ± 0.05 µM
SMILES: CC(=O)N[C@H]1[C@@H](O[C@H]2[C@@H](O)[C@@H](CO)O[C@@H](O[C@H]3[C@H](O)[C@@H](NC(C)=O)C(O)O[C@@H]3CO)[C@@H]2O[C@@H]2O[C@@H](C)[C@@H](O)[C@@H](O)[C@@H]2O)O[C@H](CO)[C@H](O)[C@@H]1O (stereo partly drawn) [compound 6, A type II]

Kd [3]: 2.2 ± 0.1 µM
Kd ([1]; read-out: Neu5Acα2-3Galb1-3GalNAc (3), site: N-terminal CRD, not pre-loaded): 4.3 ± 0.4 µM
SMILES: CC(=O)N[C@H]1[C@H]([C@H](O)[C@H](O)CO)O[C@@](O[C@H]2[C@@H](O)[C@@H](CO)O[C@@H](O[C@H]3[C@@H](O)[C@@H](CO)OC(O)[C@@H]3NC(C)=O)[C@@H]2O)(C(=O)O)C[C@@H]1O (stereo partly drawn) [compound 3, 3-sialyl-Galβ1–3GalNAc]
